# Assay results: patent publication US9629864B2 (priority 2013, dated 2017)
# How the values were obtained:
# yeast-type fungi = conditions: cited from earlier work
# Hela cells = conditions: 72 h
# [1] = test system: mouse model of acute hemolytic uremic syndrome (type 2 Shiga toxin); design: species or system mice; conditions: in vivo, 200 mg/kg
# [2] = test system: mouse model of acute hemolytic uremic syndrome (type 2 Shiga toxin); design: species or system mice; conditions: in vivo, 200 mg/kg; remark: listed apart in the source
# [3] = test system: mouse model of acute hemolytic uremic syndrome (type 2 Shiga toxin); design: species or system mice; conditions: in vivo, 200 mg/kg; remark: listed apart in the source
smiles,measurement,setting,value
O=C(O)[C@H]1O[C@@H](Oc2cc3oc(-c4ccccc4)cc(=O)c3c(O)c2O)[C@H](O)[C@@H](O)[C@@H]1O [baicalin],minimal inhibitory concentration (MIC),yeast-type fungi,70 to 100 µg/mL
same,inhibition of cytotoxicity of Hela cells caused by type 2 Shiga toxin,Hela cells,"significantly inhibited the cytotoxicity of Hela cells caused by type 2 Shiga toxin, in a dose-dependent manner"
same,"content of blood urea nitrogen (BUN) in mouse serum, drug administration group vs normal control group",[1],no significant difference
same,"content of creatinine in mouse serum, drug administration group vs normal control group",[1],no significant difference
same,survival rates of mice,[2],significantly increased
same,pathological changes of kidney,[3],"only a minor hemorrhage existed in the kidney tissue, and there was no significant difference compared with mice in normal group"
